Read-outs that look alike come from different tables or passages of the source.
Key:
Spodoptera littoralis = Spodoptera littoralis (Egyptian cotton leafworm) cotton leaf disc test; details: in Gossypium hirsutum, foliar, 72 h, read-out: control of Spodoptera littoralis
Aedes aegypti = Aedes aegypti (Yellow fever mosquito) larvae test; type: in vivo; details: 48 h
Pyricularia oryzae = assay: whole plant or invertebrate; type: in vivo; details: foliar, 96 h
Heliothis virescens = Heliothis virescens (Tobacco budworm) egg test on artificial diet; details: 96 h, read-out: control of Heliothis virescens
Myzus persicae = Myzus persicae (Green peach aphid) sunflower leaf disc test; details: foliar, 144 h, read-out: control of Myzus persicae
Septoria tritici = Septoria tritici (leaf blotch) growth inhibition in nutrient broth; type: cell-based; details: Zymoseptoria tritici, 72 hrs, read-out: control of fungal infection, Septoria tritici
[1] = test system: Puccinia recondita f.sp. tritici; assay: Puccinia recondita f.sp. tritici (wheat brown rust) leaf disk assay; type: in vivo; details: foliar, 216 h, preventive, nine days after inoculation, read-out: control of fungal infection, Puccinia recondita f.sp. tritici
Tetranychus urticae = details: foliar, 192 h, read-out: control of Tetranychus urticae
Plasmopara viticola = Plasmopara viticola (downy mildew of grapevine) leaf disk assay; type: in vivo; details: foliar, 168 h, preventive, seven days after inoculation, read-out: control of fungal infection, Plasmopara viticola
Plutella xylostella = Plutella xylostella (Diamond back moth) artificial diet test; details: 120 h, read-out: control of Plutella xylostella
[2] = test system: Erysiphe graminis f.sp. tritici; assay: Erysiphe graminis f.sp. tritici (wheat powdery mildew) leaf disk assay; type: in vivo; details: Blumeria graminis, foliar, 96 h, preventive, four days after inoculation, read-out: control of fungal infection, Erysiphe graminis fsp. tritici
Pythium ultimum = Pythium ultimum (Damping off) growth inhibition in potato dextrose broth; type: cell-based; details: Globisporangium ultimum, 48 hours, read-out: control of fungal infection, Pythium ultimum
Phytophthora infestans = assay: whole plant or invertebrate; type: in vivo; details: foliar, 96 h, read-out: control of fungal infection, Phytophthora infestans
[3] = read-out: control of fungal infection, Pyricularia oryzae (at least 80% list)
[4] = read-out: control of fungal infection, Pyricularia oryzae (at least 60% list)

| Compound | pest or weed control at 200 ppm (Spodoptera littoralis) | pest or weed control at 2 ppm (Aedes aegypti) | pest or weed control at 200 ppm (Pyricularia oryzae; [3]) | pest or weed control at 200 ppm (Heliothis virescens) | pest or weed control at 200 ppm (Myzus persicae) | inhibition of growth at 200 ppm (Septoria tritici) | pest or weed control at 200 ppm [1] | pest or weed control at 200 ppm (Tetranychus urticae) | pest or weed control at 200 ppm (Pyricularia oryzae; [4]) | pest or weed control at 200 ppm (Plasmopara viticola) | pest or weed control at 200 ppm (Plutella xylostella) | pest or weed control at 200 ppm [2] | inhibition of growth at 200 ppm (Pythium ultimum) | pest or weed control at 200 ppm (Phytophthora infestans) |
| --- | --- | --- | --- | --- | --- | --- | --- | --- | --- | --- | --- | --- | --- | --- |
| CCc1ncnc(N2C3CCC2CC(=CCOc2ccc(C)nc2)C3)c1Cl [Example 3.14] | ≥ 80% | ≥ 80% | ≥ 80% | ≥ 80% | ≥ 80% | ≥ 60% | ≥ 80% | ≥ 80% |  |  |  |  |  |  |
| Cc1ccc(C=C2CC3CCC(C2)N3c2ncnc3sccc23)cc1 [Example 3.32] | ≥ 80% | ≥ 80% | ≥ 80% | ≥ 80% | ≥ 80% |  | ≥ 80% | ≥ 80% | ≥ 60% | ≥ 80% | ≥ 80% |  |  |  |
| CCc1ncnc(N2C3CCC2CC(=NOCc2ccc(F)cc2)C3)c1Cl [Example 5.30] | ≥ 80% | ≥ 80% |  | ≥ 80% | ≥ 80% |  | ≥ 80% |  | ≥ 60% |  | ≥ 80% | ≥ 80% |  |  |
| Fc1cc(Br)ccc1CON=C1CC2CCC(C1)N2c1ncnc2sccc12 [Example 5.232] | ≥ 80% | ≥ 80% |  |  | ≥ 80% |  | ≥ 80% |  | ≥ 60% |  | ≥ 80% | ≥ 80% | ≥ 60% | ≥ 80% |
